Assay: isobaric coefficient of expansion; xn = mol fraction of the nth substance listed
Settings: calorimetric method

CCCCCCO [hexan-1-ol] + CCCCCC
isobaric coefficient of expansion
Settings | 5000 kPa | 10000 kPa | 15000 kPa | 20000 kPa | 25000 kPa | 30000 kPa | 35000 kPa | 40000 kPa | 45000 kPa | 50000 kPa
328.15 K, x1 = 0.0321 | 0.00143 1/K | 0.00135 1/K | 0.00128 1/K | 0.00122 1/K | 0.00117 1/K | 0.00112 1/K | 0.00108 1/K | 0.00104 1/K | 0.00101 1/K | 0.000976 1/K
328.15 K, x1 = 0.041 | 0.00143 1/K | 0.00135 1/K | 0.00128 1/K | 0.00122 1/K | 0.00117 1/K | 0.00112 1/K | 0.00108 1/K | 0.00103 1/K | 0.001 1/K | 0.000972 1/K
328.15 K, x1 = 0.0946 | 0.00141 1/K | 0.00133 1/K | 0.00126 1/K | 0.0012 1/K | 0.00116 1/K | 0.00111 1/K | 0.00107 1/K | 0.00103 1/K | 0.001 1/K | 0.000972 1/K
328.15 K, x1 = 0.1679 | 0.00136 1/K | 0.0013 1/K | 0.00123 1/K | 0.00118 1/K | 0.00113 1/K | 0.00109 1/K | 0.00105 1/K | 0.00101 1/K | 0.000982 1/K | 0.000952 1/K
328.15 K, x1 = 0.2153 | 0.00134 1/K | 0.00127 1/K | 0.00121 1/K | 0.00116 1/K | 0.00112 1/K | 0.00107 1/K | 0.00104 1/K | 0.000999 1/K | 0.000971 1/K | 0.000945 1/K
328.15 K, x1 = 0.3016 | 0.00129 1/K | 0.00122 1/K | 0.00117 1/K | 0.00112 1/K | 0.00108 1/K | 0.00104 1/K | 0.00101 1/K | 0.000975 1/K | 0.000948 1/K | 0.000922 1/K
328.15 K, x1 = 0.4075 | 0.00123 1/K | 0.00117 1/K | 0.00113 1/K | 0.00108 1/K | 0.00104 1/K | 0.00101 1/K | 0.000977 1/K | 0.000948 1/K | 0.00092 1/K | 0.000894 1/K
328.15 K, x1 = 0.503 | 0.00118 1/K | 0.00113 1/K | 0.00108 1/K | 0.00104 1/K | 0.00101 1/K | 0.000979 1/K | 0.000952 1/K | 0.000922 1/K | 0.000899 1/K | 0.000877 1/K
328.15 K, x1 = 0.594 | 0.00113 1/K | 0.00108 1/K | 0.00105 1/K | 0.00101 1/K | 0.00098 1/K | 0.000949 1/K | 0.000921 1/K | 0.000893 1/K | 0.000872 1/K | 0.000851 1/K
328.15 K, x1 = 0.6827 | 0.00108 1/K | 0.00104 1/K | 0.00101 1/K | 0.000973 1/K | 0.000945 1/K | 0.000918 1/K | 0.000891 1/K | 0.000865 1/K | 0.000843 1/K | 0.000823 1/K
328.15 K, x1 = 0.8013 | 0.00102 1/K | 0.000985 1/K | 0.000957 1/K | 0.000926 1/K | 0.0009 1/K | 0.000874 1/K | 0.00085 1/K | 0.000825 1/K | 0.000808 1/K | 0.000789 1/K
328.15 K, x1 = 0.8934 | 0.000972 1/K | 0.000945 1/K | 0.000917 1/K | 0.000889 1/K | 0.000869 1/K | 0.000845 1/K | 0.000823 1/K | 0.000802 1/K | 0.000783 1/K | 0.000767 1/K
328.15 K, x1 = 1 | 0.000929 1/K | 0.0009 1/K | 0.000876 1/K | 0.000854 1/K | 0.000833 1/K | 0.000813 1/K | 0.000794 1/K | 0.000776 1/K | 0.000759 1/K | 0.000745 1/K
348.15 K, x1 = 0.0321 | 0.00153 1/K | 0.00141 1/K | 0.00133 1/K | 0.00126 1/K | 0.00119 1/K | 0.00114 1/K | 0.00109 1/K | 0.00105 1/K | 0.00101 1/K | 0.00098 1/K
348.15 K, x1 = 0.041 | 0.00152 1/K | 0.00142 1/K | 0.00133 1/K | 0.00126 1/K | 0.0012 1/K | 0.00114 1/K | 0.0011 1/K | 0.00105 1/K | 0.00101 1/K | 0.00098 1/K
348.15 K, x1 = 0.0946 | 0.00151 1/K | 0.00141 1/K | 0.00133 1/K | 0.00126 1/K | 0.00119 1/K | 0.00114 1/K | 0.0011 1/K | 0.00105 1/K | 0.00102 1/K | 0.000988 1/K
348.15 K, x1 = 0.1679 | 0.00147 1/K | 0.00138 1/K | 0.0013 1/K | 0.00123 1/K | 0.00118 1/K | 0.00113 1/K | 0.00108 1/K | 0.00104 1/K | 0.001 1/K | 0.000967 1/K
348.15 K, x1 = 0.2153 | 0.00144 1/K | 0.00135 1/K | 0.00128 1/K | 0.00122 1/K | 0.00116 1/K | 0.00111 1/K | 0.00107 1/K | 0.00103 1/K | 0.000999 1/K | 0.000968 1/K
348.15 K, x1 = 0.3016 | 0.00138 1/K | 0.0013 1/K | 0.00124 1/K | 0.00118 1/K | 0.00112 1/K | 0.00108 1/K | 0.00104 1/K | 0.00101 1/K | 0.000976 1/K | 0.000944 1/K
348.15 K, x1 = 0.4075 | 0.00132 1/K | 0.00125 1/K | 0.00119 1/K | 0.00113 1/K | 0.00109 1/K | 0.00105 1/K | 0.00101 1/K | 0.000981 1/K | 0.00095 1/K | 0.000924 1/K
348.15 K, x1 = 0.503 | 0.00126 1/K | 0.0012 1/K | 0.00114 1/K | 0.0011 1/K | 0.00106 1/K | 0.00102 1/K | 0.000989 1/K | 0.000956 1/K | 0.000929 1/K | 0.000904 1/K
348.15 K, x1 = 0.594 | 0.00121 1/K | 0.00115 1/K | 0.0011 1/K | 0.00106 1/K | 0.00102 1/K | 0.000993 1/K | 0.00096 1/K | 0.000928 1/K | 0.000904 1/K | 0.000882 1/K
348.15 K, x1 = 0.6827 | 0.00116 1/K | 0.00111 1/K | 0.00107 1/K | 0.00103 1/K | 0.000994 1/K | 0.000963 1/K | 0.000933 1/K | 0.000903 1/K | 0.000881 1/K | 0.000859 1/K
348.15 K, x1 = 0.8013 | 0.00109 1/K | 0.00105 1/K | 0.00101 1/K | 0.000979 1/K | 0.000947 1/K | 0.00092 1/K | 0.000892 1/K | 0.000866 1/K | 0.000845 1/K | 0.000824 1/K
348.15 K, x1 = 0.8934 | 0.00104 1/K | 0.001 1/K | 0.00097 1/K | 0.00094 1/K | 0.000911 1/K | 0.000886 1/K | 0.000862 1/K | 0.000838 1/K | 0.000817 1/K | 0.000797 1/K
348.15 K, x1 = 1 | 0.000995 1/K | 0.00096 1/K | 0.000929 1/K | 0.000903 1/K | 0.000875 1/K | 0.000852 1/K | 0.000831 1/K | 0.000808 1/K | 0.000791 1/K | 0.000772 1/K

From the NIST ThermoML archive (doi:10.1016/j.fluid.2008.10.003)
